Assays:
Test in all cases: two-electrode voltage clamp, Xenopus oocytes
Assay type in all cases: cell-based
AsegIR75q.1/AsegIR8a [1] = molecular target: T1, AsegIR75q.1/AsegIR8a (Agrotis segetum, UniProt Z9J2I4KL46); details: agonist; co-expressed with AsegIR8a; -80 mV; pH 7.6; 0.1% DMSO; dose-response
T1 construct: full-length cDNA in pCS2+, cRNA co-injected with AsegIR8a cRNA in Xenopus laevis oocytes; with Ionotropic receptor 8a
T1 sequence (Z9J2I4KL46 1-637): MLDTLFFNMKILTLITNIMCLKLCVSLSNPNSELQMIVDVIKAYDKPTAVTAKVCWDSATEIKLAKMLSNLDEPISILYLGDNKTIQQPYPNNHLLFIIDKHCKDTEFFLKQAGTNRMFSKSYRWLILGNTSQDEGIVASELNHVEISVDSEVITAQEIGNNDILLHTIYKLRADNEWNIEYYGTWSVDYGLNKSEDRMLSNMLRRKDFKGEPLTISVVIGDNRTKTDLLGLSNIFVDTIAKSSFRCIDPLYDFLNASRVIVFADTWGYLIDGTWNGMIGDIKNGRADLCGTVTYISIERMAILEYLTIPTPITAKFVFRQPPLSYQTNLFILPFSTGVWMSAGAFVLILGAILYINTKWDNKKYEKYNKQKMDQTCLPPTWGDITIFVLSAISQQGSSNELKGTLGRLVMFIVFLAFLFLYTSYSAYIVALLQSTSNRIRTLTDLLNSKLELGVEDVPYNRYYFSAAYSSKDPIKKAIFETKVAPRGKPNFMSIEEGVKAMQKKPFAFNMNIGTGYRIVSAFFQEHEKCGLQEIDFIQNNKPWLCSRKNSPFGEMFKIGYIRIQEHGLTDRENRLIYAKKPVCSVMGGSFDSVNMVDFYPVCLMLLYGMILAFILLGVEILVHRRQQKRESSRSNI

AsegIR75p.1/AsegIR8a = molecular target: T2, AsegIR75p.1/AsegIR8a (Agrotis segetum, UniProt Z9OWS8C5E7); details: agonist; co-expressed with AsegIR8a; -80 mV; pH 7.6; 0.1% DMSO; 100 μM and dose-response
T2 construct: full-length cDNA in pCS2+, cRNA co-injected with AsegIR8a cRNA in Xenopus laevis oocytes; with Ionotropic receptor 8a
T2 sequence (Z9OWS8C5E7 1-676): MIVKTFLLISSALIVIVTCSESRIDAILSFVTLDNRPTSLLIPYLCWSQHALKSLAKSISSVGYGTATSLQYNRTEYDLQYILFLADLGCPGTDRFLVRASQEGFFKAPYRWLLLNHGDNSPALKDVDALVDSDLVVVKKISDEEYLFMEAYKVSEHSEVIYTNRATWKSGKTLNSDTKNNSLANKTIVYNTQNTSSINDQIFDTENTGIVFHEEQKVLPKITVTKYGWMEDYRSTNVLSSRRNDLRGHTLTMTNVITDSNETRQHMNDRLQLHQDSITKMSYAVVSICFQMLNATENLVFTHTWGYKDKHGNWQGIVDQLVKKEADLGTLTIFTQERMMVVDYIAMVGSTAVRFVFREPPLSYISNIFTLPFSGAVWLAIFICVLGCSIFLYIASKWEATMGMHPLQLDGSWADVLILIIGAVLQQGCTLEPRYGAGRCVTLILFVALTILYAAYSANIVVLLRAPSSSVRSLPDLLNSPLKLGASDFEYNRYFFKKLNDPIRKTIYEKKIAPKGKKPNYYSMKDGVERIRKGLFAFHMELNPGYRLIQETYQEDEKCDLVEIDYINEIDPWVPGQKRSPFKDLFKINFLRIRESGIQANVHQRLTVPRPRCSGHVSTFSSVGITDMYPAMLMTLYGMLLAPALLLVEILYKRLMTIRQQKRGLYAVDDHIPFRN

AsegIR75q.1/AsegIR8a [2] = molecular target: T1, AsegIR75q.1/AsegIR8a; details: agonist, weak; co-expressed with AsegIR8a; -80 mV; pH 7.6; 0.1% DMSO; 100 μM

SMILES	two-electrode voltage clamp, Xenopus oocytes (AsegIR75p.1/AsegIR8a)	two-electrode voltage clamp, Xenopus oocytes (AsegIR75q.1/AsegIR8a [2])	also measured
CCCCCCCCC(=O)O [nonanoic acid]	–	–	threshold concentration (AsegIR75q.1/AsegIR8a [1]): 1 µM
CC/C=C\CCO [(Z)-3-hexenol]	hexanoic acid, followed by (Z)-3-hexenol, (E)-2-hexenal, and hexanal	–	–
CCCCCCCC=O [octanal]	–	This receptor also responded slightly to heptanoic acid and octanal	–
CCCCCC(=O)O [hexanoic acid]	The strongest response was elicited by hexanoic acid	–	–
CCCCCCC(=O)O [heptanoic acid]	–	This receptor also responded slightly to heptanoic acid and octanal	–

From publication PMC8822749, “Ionotropic receptors in the turnip moth Agrotis segetum respond to repellent medium-chain fatty acids” (BMC Biology, 2022)
